# Measured values reported in patent US20110165113A1, “POLYMER CONJUGATES OF V681-LIKE PEPTIDES” (Nektar Therapeutics, priority 2008, published 2011).
# Square brackets hold non-standard residues; d marks the D form. Peptide text beside a SMILES is read from it.
# Assay: Pharmacokinetics after a single IV dose in rats
# Details: male, Sprague-Dawley, rat, in vivo, equivalent protein mass of 1.0 mg/kg
# Source text: The weight range of the animals was 311-346 grams. All animals were food fasted overnight. […] The predose sample was collected from the JVC.
# Following the last collection point, the animals were euthanized.
smiles,measurement,setting,value
CC[C@H](C)[C@H](NC(=O)[C@H](C)NC(=O)[C@H](CCCCN)NC(=O)[C@H](CC(C)C)NC(=O)[C@H](C)NC(=O)[C@@H](NC(=O)[C@H](Cc1c[nH]cn1)NC(=O)[C@H](CC(C)C)NC(=O)[C@@H](NC(=O)[C@@H](NC(=O)[C@H](CCCCN)NC(=O)[C@@H](C)NC(=O)[C@H](C)NC(=O)[C@H](CO)NC(=O)[C@H](CCCCN)NC(=O)[C@H](Cc1ccccc1)NC(=O)[C@@H](NC(=O)[C@H](CCCCN)NC(=O)[C@H](CC(C)C)NC(=O)[C@H](Cc1ccccc1)NC(=O)[C@H](CO)NC(=O)[C@H](CCCCN)NC(=O)[C@H](Cc1c[nH]c2ccccc12)NC(=O)[C@H](CCCCN)NC(C)=O)[C@@H](C)O)[C@@H](C)O)C(C)C)[C@@H](C)O)C(=O)N[C@@H](CO)C(=O)N[C@@H](CO)C(N)=O [V681 (V13AD)] (Ac-KWKSFLKTFKSA[dA]KTVLHTALKAISS-NH2),AUC(0-inf),,7210 ± 1430 ng·h/mL
same,Cmax,,16500 ± 9670 ng/mL
same,MRT,,19.8 ± 4.8 min
same,clearance,,2.37 mL/min/kg
same,half-life,,36.6 ± 23.4 min
same,Vd,read-out: Vss,0.0477 ± 0.018 L/kg
